In patent US8173840B2, “Compounds with high therapeutic index” (Signature R&D Holdings, LLC, priority 2003, dated 2012):

Columns and labels:
[1] = tested on: fasted male albino rats (Wistar strain); test: Gastric mucosa irritation of acetylsalicylic acid esters; format: in vivo, rat; conditions: single dose by gavage, 3 hours, 5 animals
Description: Aspirin served as a reference control. […] All the doses were expressed as aspirin molar equivalents. The doses used as well as the molar equivalents are presented below. The rats were fasted for a period of 18 to 22 hours before dosing. The test item was administered as a single dose by gavage. Three hours after drug administration, the animals were killed humanely by CO2 gas inhalation. The stomach was dissected out and observed for • the quantity of mucous exudate, • degree of hyperemia and thickening of stomach wall, • hemorrhagic spots (focal or diffuse), nature of hemorrhages (petechial or ecchymotic) along with the size and • perforations

human volunteers = test: Blood clotting time studies in human volunteers; format: in vivo; conditions: human volunteers
Description: Several blood clotting time studies were performed on a limited number of human volunteers with Acetylsalicylic Acid-L-Threonine Ester. […] This plot was derived from the data in Table 29. The two Acetylsalicylic Acid-L-Threonine Ester blocks shown above correspond to two separate volunteers who took the test drug over a period of 5 days. The third volunteer took Bayer Aspirin for 5 days. As per FIG. 2, increase in clotting time occurred on the very first day of drug intake, and remained higher than Bayer ASA during the subsequent administrations.

women = conditions: daily dose of 60 mg, more than 9000 women; cited from earlier work
[2] = Plasma aspirin and salicylic acid in human volunteers; format: in vivo
Source text: This is shown in FIG. 12 which depicts the concentration of salicyclic Acid in human plasma with respect to four volunteers who took Acetylsalicyclic Acid-L-Threonine Ester and two volunteers who took Aspirin.

Male albino rats = test: Blood clotting time in albino rats, 2 hours after dosing; format: in vivo, rat; conditions: 20 mg/kg as aspirin, 2 hours (±10 minutes) after dosing
Description: Aspirin served as positive control. Male albino rats were exposed to aspirin and to 3 new formulations of amino acid derivatives of aspirin derivatives at one dose level of 20 mg/kg body weight. […]. The doses were expressed as aspirin molar equivalents.
The efficacy in terms of time required for the blood clotting time at the dose level of 20 mg/kg body weight for different formulations of amino acid derivatives of aspirin and aspirin (positive control) are presented below:
The data on the mean clotting time (MCT) of the animals, estimated 2 hours (±10 minutes) after dosing, at the dose level of 20 mg/kg body weight for the formulations of aspirin derivatives, vehicle control and positive control are presented below

[3] = tested on: albino rats (Wistar strain); conditions: rat, in vivo
Description: (§1) The study was conducted at one dose level only along with a vehicle control group as per the recommendation of the Sponsor. The test doses are expressed as Aspirin molar equivalents.

rats = test: Clotting time in rats, different date, time intervals and doses (Table 24); format: in vivo, rat
Source text: The following additional data were obtained, when the same drugs were compared in rats on a different date with different time intervals and doses: […]

[4] = tested on: albino rats (Wistar strain); test: 28-day repeated dose oral toxicity test of Acetylsalicylic Acid-L-Threonine Ester; conditions: 100 mg/kg as aspirin, oral gavage daily 28 days;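 further: one dose level only, compared with a vehicle control group, with doses stated as Aspirin molar equivalents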
Description: as §1

albino rats = test: Blood clotting time in albino rats, one hour after dosing; format: in vivo, rat; conditions: one hour after dosing
Description: The data on the mean clotting time (MCT) of the animals of low, intermediate and high dose groups of different formulations, vehicle control and positive control groups estimated one hour after dosing were presented below (Table 19):
Aspirin served as positive control. The study was conducted at three dose levels with the new formulations and positive control along with a vehicle control group.
The doses for the main study were selected based on the dose range finding experiments with acetylsalicylic acid. All the doses were expressed as aspirin molar equivalents. The doses used are presented below.

## CC(=O)Oc1ccccc1C(=O)O [acetylsalicylic acid, reference compound]
[1]; 100.0 mg/kg as acetylsalicylic acid, listed as aspirin
  Observation, gastric mucosal irritation: failed to cause any evidence of gastric mucosal irritation
[1]; 200.0 mg/kg as acetylsalicylic acid, listed as aspirin (acetylsalicylic acid)
  Observation, gastric mucosal irritation: caused irritation of the gastric mucosal in all the fasted male albino rats
Human volunteers; 81 mg
  AVERAGE CLOTTING TIME: 4.5 min
Human volunteers; 325 mg
  AVERAGE CLOTTING TIME: 5.7 min
women
  reduced the risk of pre-eclampsia by: 13%
[2]
  Salicylic Acid in human plasma (profile, words): Rapid influx and efflux of Salicylic Acid
[2]; 325 mg dose, oral
  Aspirin in blood / plasma: showed Plasma levels of Aspirin
Male albino rats
  Mean Clotting Time (± S.D.): 5.4 ± 1.17 min
[3]
  Alkaline Phosphatase, Significance [P < 0.05]: Increase (Female)
  All Blood Parameters, Significance [P < 0.05]: None
  Blood Urea, Significance [P < 0.05]: Decrease (Female)
  Food intake: normal and comparable to the animals of vehicle control group
  Kidney (Abs) organ weight, Significance[P < 0.05]: Decrease (Male)
  Kidney (Rel) organ weight, Significance[P < 0.05]: Increase (Male)
  SGPT and Cholesterol, Significance [P < 0.05]: Increase (Male)
  Sodium, Significance [P < 0.05]: Increase (Female)
  Spleen (Abs) organ weight, Significance[P < 0.05]: Decrease (Female)
  Spleen (Rel) organ weight, Significance[P < 0.05]: Increase (Female)
  histological sections of organs: mild fatty changes in the cardiac muscle fibers of heart and mild catarrhal changes of gastric mucosa
rats; 10 mg/kg 1 hr
  Clotting Time: 9.8 min
rats; 10 mg/kg 24 hr
  Clotting Time: 4.4 min
rats; 20 mg/kg 2 hr
  Clotting Time: 5.4 min
[4]
  survival: survived through the dosing period of 28 days
Albino rats; 1.0 mg/kg as aspirin
  Mean Clotting Time (±S.D.), Low Dose: 6.2 ± 1.40 min
Albino rats; 4.0 mg/kg as aspirin
  Mean Clotting Time (±S.D.), Intermediate Dose: 8.1 ± 1.97 min
Albino rats; 10.0 mg/kg as aspirin
  Mean Clotting Time (±S.D.), High Dose: 9.8 ± 1.32 min
Albino rats
  statistical analysis of mean clotting time vs vehicle control: significant improvement at 5% significance level in the efficacy for the intermediate and high dose
